The nature of series [1]: Stability of aqueous solutions of TPPS2a and TPCS2a salts at 40° C. for 31 days, analyzed by HPLC. The class given is physicochemical. How it is done:
Aqueous solutions of TPPS2a salts (approx. 1% weight) were kept at 40° C. for 31 days. The solutions were analyzed by HPLC(HP 1100). The HPLC conditions were as follows:
Column: Agilent Extend C-18
Mobile phase: 85% methanol, 15% water
Detector: UV detector, 415 nm
Aqueous solutions of TPCS2a salts (approx. 1% weight) were kept at 40° C. for 31 days.

Series [2] can be described thus: Solubility in water of TPPS2a and TPCS2a salts (water added in 0.2 ml portions to approx. 50 mg).
From the text: (§1) The mixture was agitated until solid particles were broken up and dissolved.
as §1

Setting [3] is: TPPS2a salts, aqueous solution approx. 1% weight, 40° C., 31 days, HPLC UV 415 nm.

Like-named read-outs stand apart in the source and are kept apart here.

As for `NCCO.NCCO.O=S(=O)(O)c1ccc(-c2c3nc(c(-c4ccc(S(=O)(=O)O)cc4)c4ccc([nH]4)c(-c4ccccc4)c4nc(c(-c5ccccc5)c5ccc2[nH]5)C=C4)C=C3)cc1` [Example 1, Meso-Tetraphenyl Porphyrin Disulphonate Bis(Monoethanolamine)], the Degradation result in series [1] (setting [3]) was “No degradation”. As to `CNCC(O)C(O)C(O)C(O)CO.CNCC(O)C(O)C(O)C(O)CO.O=S(=O)(O)c1ccc(-c2c3nc(c(-c4ccccc4)c4ccc([nH]4)c(-c4ccccc4)c4nc(c(-c5ccc(S(=O)(=O)O)cc5)c5ccc2[nH]5)C=C4)C=C3)cc1` [Example 2, Meso-Tetraphenyl Porphyrin Disulphonate Bis(Meglumate)], the Degradation result in series [1] is “No degradation”. Besides, in series [2], the “Minimum solubility in water” value was 89.7 mg/mL. Consider `O=S(=O)(O)c1ccc(-c2c3nc(c(-c4ccccc4)c4ccc([nH]4)c(-c4ccccc4)c4nc(c(-c5ccc(S(=O)(=O)O)cc5)c5ccc2[nH]5)C=C4)C=C3)cc1.OCCNCCO.OCCNCCO` [Example 4, Meso-Tetraphenyl Porphyrin Disulphonate Bis(Diethanolamine)], for which the Degradation result in series [1] was “No degradation”. Same read-out and setting: the value for `O=S(=O)(O)c1ccc(-c2c3nc(c(-c4ccc(S(=O)(=O)O)cc4)c4ccc([nH]4)c(-c4ccccc4)c4nc(c(-c5ccccc5)c5ccc2[nH]5)C=C4)C=C3)cc1.OCCN1CCCC1.OCCN1CCCC1` [Example 5, Meso-Tetraphenyl Porphyrin Disulphonate Bis(1-(2-Hydroxyethyl)Pyrrolidine)] was “No degradation”. In the case of `O=S(=O)(O)c1ccc(-c2c3nc(c(-c4ccc(S(=O)(=O)O)cc4)c4ccc([nH]4)c(-c4ccccc4)c4nc(c(-c5ccccc5)c5ccc2[nH]5)C=C4)C=C3)cc1.OCCN(CCO)CCO.OCCN(CCO)CCO` [Example 6, Meso-Tetraphenyl Porphyrin Disulphonate Bis(Triethanolamine)], the Degradation result in series [1] (setting [3]) was “No degradation”.

“Meso-Tetraphenyl Chlorin Disulphonate Bis(Meglumate) [Example 8]”: in series [1] (TPCS2a salts, aqueous solution approx. 1% weight, 40° C., 31 days, HPLC), the Degradation entry was “No degradation”. Besides, in series [2] (TPCS2a salts, water added in 0.2 ml portions to approx. 50 mg until dissolved), the “Minimum solubility in water” value was 38.9 mg/mL. For the molecule “Meso-Tetraphenyl Chlorin Disulphonate Bis(Monoethanolamine) [Example 7]”, in series [1], the Degradation result is given as “No degradation”.

Values taken from patent US20120253264A1, “PHOTOCHEMICAL INTERNALIZATION METHOD” (priority 2009, published 2012).
